Test results as given in US6054459A, “Substituted 1,2,3,4-tetrahydro-5-nitro-pyrimidines” (priority 1994, dated 2000).
Read-outs that look alike come from different tables or passages of the source.

Columns and labels:
[1] = system: Myzus persicae; experiment: Myzus test; format: in vivo, Myzus persicae (green peach aphid); details: 144 h, read-out: Degree of destruction in % after 6d
Experimental: (§1) Solvent: 7 parts by weight of dimethylformamide
(§2) Emulsifier: 1 part by weight of alkylaryl polyglycol ether
(§3) To produce a suitable preparation of active compound, 1 part by weight of active compound is mixed with the stated amount of solvent and the stated amount of emulsifier, and the concentrate is diluted with water to the desired concentration.
Cabbage leaves (Brassica oleracea) which are severely infested with the green peach aphid (Myzus persicae) are treated by being dipped into the preparation of active compound of the desired concentration.
After the desired period of time, the destruction in % is determined. 100% means that all the aphids have been killed; 0% means that none of the aphids have been killed.

[2] = system: Aphis fabae; experiment: Critical concentration test/root-systemic action; format: in vivo; details: 48 h, 20 ppm in soil, infested after 7 days, evaluated after a further 2 days, read-out: Degree of destruction in % at active compound concentrations in ppm (root-systemic action)
Experimental: Critical concentration test/root-systemic action
Solvent: 4 parts by weight of acetone
as §2
To produce a suitable preparation of active compound, 1 part by weight of active compound is mixed with the stated amount of solvent, the stated amount of emulsifier is added and the concentrate is diluted with water to the desired concentration.
The preparation of active compound is intimately mixed with soil. The concentration of the active compound in the preparation is of practically no importance, only the amount by weight of active compound per unit volume of soil, which is given in ppm (=mg/1), being decisive. The treated soil is transferred into pots and these are planted with pregerminated broad beans. The active compound can in this way be taken up from the soil by the roots of the plants and be transported into the leaves.
After a further 2 days, the evaluation is made by counting or estimating the dead animals. The root-systemic action of the active compound is deduced from the mortality figures. It is 100% if all test animals have been killed and 0% if just as many test insects are still alive as in the case of the untreated control.

[3] = system: Lucilia cuprina res. larvae; experiment: Test with resistant Lucilia cuprina larvae; format: in vivo; details: for mortality at 100 ppm: Lucilia cuprina, read-out: effectiveness (degree of destruction)
Experimental: Test with resistant Lucilia cuprina larvae
Emulsifier: 35 parts by weight of ethylene glycol monomethyl ether 35 parts by weight of nonylphenol polyglycol ether
To produce a suitable preparation of active compound, three parts by weight of active compound are mixed with seven parts by weight of the abovementioned mixture and the concentrate thus obtained is diluted with water to the particular desired concentration.
About 20 Lucilia cuprina res. larvae are introduced into a test tube which contains approx. 1 cm^3 of horse meat and 0.5 ml of the preparation of active compound. After 24 hours, the degree of destruction is determined.

[4] = system: Ctenocephalides felis; experiment: In-vitro flea test (all stages of development); format: in vivo; details: no adult fleas after 11/2 times the development time
Experimental: In-vitro flea test (all stages of development)
Test object: All stages (eggs, larvae, pupae and adults) of Ctenocephalides felis.
Test method: Bloodmeal is dried overnight in a shallow dish at approximately 70° C. and subsequently screened using a mesh size of 0.63 mm.
1.8 g portions of the bloodmeal which has been prepared in this manner are placed into plastic Petri dishes .o slashed. 9.8 cm.
Using an Eppendorf pipette, 0.2 ml of the substance are added to the 1.8 g portions of bloodmeal (dilution 1:10). This means that for a use concentration of 1 ppm, the aqueous solution must have a concentration of 10 ppm. The solution is applied dropwise and uniformly over the entire area covered by the bloodmeal.
The dishes which have been prepared in this manner are allowed to dry overnight. Using a suitable device, the substance, now in the form of dried lumps of bloodmeal, is broken up and distributed homogeneously in the Petri dish by swirling. To the test dishes which have been prepared in this manner there is now added a spatula--tipful of flea eggs which have been obtained by screening (and which are derived from experimentally infected cats). The dish is sealed using Parafilm and shaken vigorously.
The test materials are incubated at 25° C. and a relative humidity of 85%. At certain intervals, the dishes are examined for stages of development of the fleas.
Test criterion: The criterion for the in-vitro activity of a substance is defined as the inhibition of flea development, or a standstill during the development before reaching the adult stage.
Effective: No adult fleas found after 11/2 times the development time.
Ineffective: Adult fleas found after 11/2 times the development time.

[5] = system: Musca domestics, strain WHO(N); experiment: Fly test; format: in vivo; details: 6 h, read-out: activity (flies destroyed)
Experimental: Test animals: Musca domestics, strain WHO(N)
Solvent: 35 parts by weight of ethylene glycol mono-methyl ether
35 parts by weight of nonylphenol polyglycol ether
To produce a suitable formulation, three parts by weight of active compound are mixed with seven parts of the abovementioned solvent-emulsifier mixture and the emulsion concentrate thus obtained is diluted with water to the particular desired concentration.
2 ml of this preparation of active compound are pipetted onto paper filter discs (.o slashed. 9.5 cm) located in Petri dishes of a suitable size. After the discs have dried, 25 test animals are transferred into the Petri dishes and covered.
After 6 hours, the activity of the preparation of active compound is determined. The activity is expressed in %. 100% means that all flies have been destroyed; 0% means that no flies have been destroyed.

[6] = physchem
[7] = system: Nephotettix cincticeps; experiment: Nephotettix test; format: in vivo, Nephotettix cincticeps (green rice leafhopper); details: 144 h, after 6d, read-out: Degree of destruction in % after 6d; for mortality at 1e-05 %: active compound concentration 0.00001 %; for mortality at 0.0001 %: active compound concentration 0.0001 %; for mortality at 0.001 %: active compound concentration 0.001 %
Experimental: as §1, §2, §3
Rice seedlings (Oryza sativa) are treated by being dipped into the preparation of active compound of the desired concentration and are infested with larvae of the green rice leafhopper (Nephotettix cincticeps) while the seedlings are still moist.
After the desired period of time, the destruction in % is determined. 100% means that all the leafhoppers have been killed; 0% means that none of the leafhoppers have been killed.

[8] = active compound concentration 0.001 %, after 6d
[9] = active compound concentration 0.01 %, after 6d

CCCCNC(=O)OCCCN1CC([N+](=O)[O-])=C2N(Cc3ccc(Cl)nc3)CCN2C1
mortality at 0.001 % [1, 8]: 98% | mortality at 0.01 % [1, 9]: 100%

CC(C)(C)C(=O)NCCN1CC([N+](=O)[O-])=C2N(Cc3ccc(Cl)nc3)CCN2C1
mortality at 20 ppm [2]: 100%

CCOC(=O)NCCN1CC([N+](=O)[O-])=C2N(Cc3ccc(Cl)nc3)CCN2C1 [Example 3, 6,7-dihydro-6-(2-ethoxy-carbonylamino-ethyl)-8-nitro-(5H)-3-(2-chloropyridin-5-yl-methyl)-imidazolidino-[2,3-f] -pyrimidine]
activity compared with the prior art ([3]; 24 hours): superior activity compared with the prior art | mortality at 100 ppm ([3]; 24 h): 100% | inhibition at 10 ppm [4]: 100%

CC(C)NC(=O)OCCN1CC([N+](=O)[O-])=C2N(Cc3ccc(Cl)nc3)CCN2C1 [Example 14]
activity compared with the prior art ([3]; 24 hours): superior activity compared with the prior art | mortality at 100 ppm ([3]; 24 h): 100%

CC(C)(C)OC(=O)NCCN1CC([N+](=O)[O-])=C2N(Cc3ccc(Cl)nc3)CCN2C1 [Example 16]
activity compared with the prior art ([3]; 24 hours): superior activity compared with the prior art | mortality at 100 ppm ([3]; 24 h): 100% | inhibition at 10 ppm [4]: 100% | mortality at 1000 ppm [5]: 100%

O=C(NCCN1CC([N+](=O)[O-])=C2N(Cc3ccc(Cl)nc3)CCN2C1)OCc1ccccc1 [Example 18]
activity compared with the prior art ([3]; 24 hours): superior activity compared with the prior art | mortality at 100 ppm ([3]; 100 ppm, 24 hours): 100% | inhibition at 10 ppm [4]: 100%

O=[N+]([O-])C1=C2N(Cc3ccc(Cl)nc3)CCN2CN(CCCCCO)C1 [II-13]
logP [6]: 0.97

O=[N+]([O-])C1=C2N(Cc3ccc(Cl)nc3)CCN2CN(CCCCCCO)C1 [II-14]
logP [6]: 0.74

O=[N+]([O-])C1=C2N(Cc3cnc(Cl)s3)CCN2CN(CCCCO)C1 [II-17]
logP [6]: 0.58

O=[N+]([O-])C1=C2N(Cc3ccc(Cl)nc3)CCCN2CN(CCOCC(F)(F)F)C1 [drawing 134, reference compound]
mortality at 1e-05 % [7]: 0% | mortality at 0.0001 % [7]: 60% | mortality at 0.001 % [7]: 100%

CNC(=O)OCCCN1CC([N+](=O)[O-])=C2N(Cc3ccc(Cl)nc3)CCN2C1 [drawing 135]
mortality at 1e-05 % [7]: 100% | mortality at 0.0001 % [7]: 100% | mortality at 0.001 % [7]: 100%

CC(=O)OCCCN1CC([N+](=O)[O-])=C2N(Cc3ccc(Cl)nc3)CCN2C1 [drawing 136]
mortality at 1e-05 % [7]: 100% | mortality at 0.0001 % [7]: 100% | mortality at 0.001 % [7]: 100%

O=[N+]([O-])C1=C2N(Cc3ccc(Cl)nc3)CCCN2CN(CCOCC(F)(F)F)C1 [drawing 137, reference compound]
mortality at 0.001 % [1]: 0% | mortality at 0.01 % [1]: 80%

CC(C)(C)OC(=O)NCCN1CC([N+](=O)[O-])=C2N(Cc3ccc(Cl)nc3)CCN2C1 [drawing 138]
mortality at 0.001 % [1]: 100% | mortality at 0.01 % [1]: 100%

CCOC(=O)NCCN1CC([N+](=O)[O-])=C2N(Cc3ccc(Cl)nc3)CCN2C1 [drawing 139]
mortality at 0.001 % [1]: 95% | mortality at 0.01 % [1]: 100%

CC(=O)NCCN1CC([N+](=O)[O-])=C2N(Cc3ccc(Cl)nc3)CCN2C1 [drawing 140]
mortality at 0.001 % [1]: 100% | mortality at 0.01 % [1]: 100%

CCOC(=O)NCCCN1CC([N+](=O)[O-])=C2N(Cc3ccc(Cl)nc3)CCN2C1 [drawing 141]
mortality at 0.001 % [1]: 99% | mortality at 0.01 % [1]: 100%

O=C(NCCCCCCCl)OCCCN1CC([N+](=O)[O-])=C2N(Cc3ccc(Cl)nc3)CCN2C1 [drawing 143]
mortality at 0.001 % [1, 8]: 100% | mortality at 0.01 % [1, 9]: 100%
